Experimental data reported in ChEMBL document CHEMBL3046912, “Effectiveness of 1,3-dichloropropene as an alternative to methyl bromide in rotations of tomato (Solanum lycopersicum) and cucumber (Cucumis sativus) in China” (2012).
Activity calls are given as the source filed them. The rule behind the calls is not given here.

Assays:
[1] = tested on: Digitaria sanguinalis; assay: Herbicidal activity against Digitaria sanguinalis (hairy crabgrass) in cucumber plants fields exposed to 400 kg/ha compound fumigation treatment assessed as hand weeding time per plot relative to untreated control; assay type: functional
[2] = tested on: Meloidogyne incognita; assay: Nematicidal activity against Meloidogyne incognita (root-knot nematode) in cucumber growing fields exposed to 400 kg/ha compound fumigation treatment assessed as root galling index measured 20 days after compound treatment (reference value: 8.72 root galling index); assay type: functional
[3] = tested on: Solanum lycopersicum; assay: Increase in crop yield in Cucumis sativus (cucumber) plants exposed to 400 kg/ha compound fumigation treatment assessed as marketable yield fruit yield (reference value: 65.3 ton/ha); assay type: functional
[4] = tested on: Capsella bursa-pastoris; assay: Herbicidal activity against Capsella bursa-pastoris in cucumber plants fields exposed to 400 kg/ha compound fumigation treatment assessed as hand weeding time per plot (reference value: 258.3 hr/ha); assay type: functional
[5] = tested on: Solanum lycopersicum; assay: Increase in crop yield in Solanum lycopersicum (tomato) plants exposed to 400 kg/ha compound fumigation treatment assessed as extra-large fruit yield (reference value: 3.8 ton/ha); assay type: functional
[6] = tested on: Digitaria sanguinalis; assay: Herbicidal activity against Digitaria sanguinalis (hairy crabgrass) in tomato plants fields exposed to 400 kg/ha compound fumigation treatment assessed as hand weeding time per plot relative to untreated control; assay type: functional
[7] = tested on: Arenaria serpyllifolia; assay: Herbicidal activity against Arenaria serpyllifolia in cucumber plants fields exposed to 400 kg/ha compound fumigation treatment assessed as hand weeding time per plot relative to untreated control; assay type: functional
[8] = tested on: Arenaria serpyllifolia; assay: Herbicidal activity against Arenaria serpyllifolia in cucumber plants fields exposed to 400 kg/ha compound fumigation treatment assessed as hand weeding time per plot (reference value: 258.3 hr/ha); assay type: functional
[9] = tested on: Cucumis sativus; assay: Increase in plant height of Cucumis sativus (cucumber) exposed to 400 kg/ha compound fumigation treatment measured 30 days after compound treatment (reference value: 85.6 cm); assay type: functional
[10] = tested on: Solanum lycopersicum; assay: Increase in crop yield in Solanum lycopersicum (tomato) plants exposed to 400 kg/ha compound fumigation treatment assessed as medium fruit yield (reference value: 32.3 ton/ha); assay type: functional
[11] = tested on: Arenaria serpyllifolia; assay: Herbicidal activity against Arenaria serpyllifolia in tomato plants fields exposed to 400 kg/ha compound fumigation treatment assessed as hand weeding time per plot (reference value: 243.3 hr/ha); assay type: functional
[12] = tested on: Botrytis cinerea; assay: Fungicidal activity against Botryotinia fuckeliana-induced withering in tomato plants at 400 kg/ha measured 20 to 60 days post compound treatment; assay type: functional, organism-based
[13] = tested on: Solanum lycopersicum; assay: Increase in crop yield in Cucumis sativus (cucumber) plants exposed to 400 kg/ha compound fumigation treatment assessed as extra-large fruit yield (reference value: 7.2 ton/ha); assay type: functional
[14] = tested on: Solanum lycopersicum; assay: Increase in crop yield in Cucumis sativus (cucumber) plants exposed to 400 kg/ha compound fumigation treatment assessed as medium fruit yield (reference value: 38.6 ton/ha); assay type: functional
[15] = tested on: Solanum lycopersicum; assay: Increase in crop yield in Cucumis sativus (cucumber) plants exposed to 400 kg/ha compound fumigation treatment assessed as large fruit yield (reference value: 19.5 ton/ha); assay type: functional
[16] = tested on: Solanum lycopersicum; assay: Increase in plant height of Solanum lycopersicum (tomato) exposed to 400 kg/ha compound fumigation treatment measured 30 days after compound treatment (reference value: 28.4 cm); assay type: functional
[17] = tested on: Digitaria sanguinalis; assay: Herbicidal activity against Digitaria sanguinalis (hairy crabgrass) in tomato plants fields exposed to 400 kg/ha compound fumigation treatment assessed as hand weeding time per plot (reference value: 243.3 hr/ha); assay type: functional
[18] = tested on: Solanum lycopersicum; assay: Increase in crop yield in Solanum lycopersicum (tomato) plants exposed to 400 kg/ha compound fumigation treatment assessed as marketable yield fruit yield (reference value: 51.3 ton/ha); assay type: functional
[19] = tested on: Digitaria sanguinalis; assay: Herbicidal activity against Digitaria sanguinalis (hairy crabgrass) in cucumber plants fields exposed to 400 kg/ha compound fumigation treatment assessed as hand weeding time per plot (reference value: 258.3 hr/ha); assay type: functional
[20] = tested on: Arenaria serpyllifolia; assay: Herbicidal activity against Arenaria serpyllifolia in tomato plants fields exposed to 400 kg/ha compound fumigation treatment assessed as hand weeding time per plot relative to untreated control; assay type: functional
[21] = tested on: Cucumis sativus; assay: Increase in plant height of Cucumis sativus (cucumber) exposed to 400 kg/ha compound fumigation treatment measured 50 days after compound treatment (reference value: 103.2 cm); assay type: functional
[22] = tested on: Phytophthora melonis; assay: Fungicidal activity against Phytophthora melonis-induced blight disease in cucumber plants at 400 kg/ha measured 20 to 60 days post compound treatment; assay type: functional, organism-based
[23] = tested on: Capsella bursa-pastoris; assay: Herbicidal activity against Capsella bursa-pastoris in tomato plants fields exposed to 400 kg/ha compound fumigation treatment assessed as hand weeding time per plot (reference value: 243.3 hr/ha); assay type: functional
[24] = tested on: Capsella bursa-pastoris; assay: Herbicidal activity against Capsella bursa-pastoris in tomato plants fields exposed to 400 kg/ha compound fumigation treatment assessed as hand weeding time per plot relative to untreated control; assay type: functional
[25] = tested on: Meloidogyne incognita; assay: Nematicidal activity against Meloidogyne incognita (root-knot nematode) in tomato growing fields exposed to 400 kg/ha compound fumigation treatment assessed as root galling index measured 20 days after compound treatment (reference value: 8.51 root galling index); assay type: functional
[26] = tested on: Solanum lycopersicum; assay: Increase in crop yield in Solanum lycopersicum (tomato) plants exposed to 400 kg/ha compound fumigation treatment assessed as large fruit yield (reference value: 15.2 ton/ha); assay type: functional
[27] = tested on: Capsella bursa-pastoris; assay: Herbicidal activity against Capsella bursa-pastoris in cucumber plants fields exposed to 400 kg/ha compound fumigation treatment assessed as hand weeding time per plot relative to untreated control; assay type: functional
[28] = tested on: Solanum lycopersicum; assay: Increase in plant height of Solanum lycopersicum (tomato) exposed to 400 kg/ha compound fumigation treatment measured 50 days after compound treatment (reference value: 86.2 cm); assay type: functional

## CBr [BROMOMETHANE]
[1]
  Activity: 45%
[2]
  Root_galling_index: 3.24
[3]
  Crop_yield: 101.9 tons/ha
[4]
  Time: 41.9 hr/ha
[5]
  Crop_yield: 8.3 tons/ha
[6]
  Activity: 45%
[7]
  Activity: 45%
[8]
  Time: 41.9 hr/ha
[9]
  Activity: 108.6 cm
[10]
  Crop_yield: 46.6 tons/ha
[11]
  Time: 35.2 hr/ha
[12]
  Activity: Active
[13]
  Crop_yield: 14.3 tons/ha
[14]
  Crop_yield: 55.3 tons/ha
[15]
  Crop_yield: 32.3 tons/ha
[16]
  Activity: 43.5 cm
[17]
  Time: 35.2 hr/ha
[18]
  Crop_yield: 76.6 tons/ha
[19]
  Time: 41.9 hr/ha
[20]
  Activity: 45%
[21]
  Activity: 132.6 cm
[22]
  Activity: Active
[23]
  Time: 35.2 hr/ha
[24]
  Activity: 45%
[25]
  Root_galling_index: 3.54
[26]
  Crop_yield: 21.7 tons/ha
[27]
  Activity: 45%
[28]
  Activity: 118.7 cm
